Results from PMC7326984, “Synthesis, in vitro urease inhibitory potential and molecular docking study of benzofuran-based-thiazoldinone analogues” (Scientific Reports, 2020).

Target: urease enzyme (Canavalia ensiformis, UniProt P07374)
Format: biochemical
Conditions: read-out: IC50 values (urease inhibition); indophenol method, pH 6.8, 30 °C, 15 min incubation, triplicate; thiourea as standard
Experimental: 25 µL of enzyme and 55 µL of buffer was added to 100 mM urea that were incubated with test scaffolds 5 µL (0.5 mM concentration) for 15 min at 30 °C in 96-well plates. Urea concentrations were changed from 2–24 mM to study kinetics. As described by Weatherburn the urease potential was assessed by measuring the ammonia production with using indophenol method. Concisely, 70 µL of alkali reagent (0.1% active chloride NaOCl and 0.5 w/v NaOH) and 45 µL of reagent phenol (0.005% w/v sodium nitroprusside and 1% w/v phenol) were added to each and every well plate. Using microplate reader (Molecular Device, USA) the increase in absorbance at 630 nm was measured after 50 min. Using 200 µL as final volume the reading was performed as triplicate. With help of SoftMaxPro software (Molecular Device, USA) the results (per min absorbance change) were calculated. At pH 6.8 the entire assay was performed. With the help of 100 − (ODtest well/ODcontrol) × 100 the percentage inhibition was calculated.

Chain of urease enzyme (P07374 whole entry, looked up): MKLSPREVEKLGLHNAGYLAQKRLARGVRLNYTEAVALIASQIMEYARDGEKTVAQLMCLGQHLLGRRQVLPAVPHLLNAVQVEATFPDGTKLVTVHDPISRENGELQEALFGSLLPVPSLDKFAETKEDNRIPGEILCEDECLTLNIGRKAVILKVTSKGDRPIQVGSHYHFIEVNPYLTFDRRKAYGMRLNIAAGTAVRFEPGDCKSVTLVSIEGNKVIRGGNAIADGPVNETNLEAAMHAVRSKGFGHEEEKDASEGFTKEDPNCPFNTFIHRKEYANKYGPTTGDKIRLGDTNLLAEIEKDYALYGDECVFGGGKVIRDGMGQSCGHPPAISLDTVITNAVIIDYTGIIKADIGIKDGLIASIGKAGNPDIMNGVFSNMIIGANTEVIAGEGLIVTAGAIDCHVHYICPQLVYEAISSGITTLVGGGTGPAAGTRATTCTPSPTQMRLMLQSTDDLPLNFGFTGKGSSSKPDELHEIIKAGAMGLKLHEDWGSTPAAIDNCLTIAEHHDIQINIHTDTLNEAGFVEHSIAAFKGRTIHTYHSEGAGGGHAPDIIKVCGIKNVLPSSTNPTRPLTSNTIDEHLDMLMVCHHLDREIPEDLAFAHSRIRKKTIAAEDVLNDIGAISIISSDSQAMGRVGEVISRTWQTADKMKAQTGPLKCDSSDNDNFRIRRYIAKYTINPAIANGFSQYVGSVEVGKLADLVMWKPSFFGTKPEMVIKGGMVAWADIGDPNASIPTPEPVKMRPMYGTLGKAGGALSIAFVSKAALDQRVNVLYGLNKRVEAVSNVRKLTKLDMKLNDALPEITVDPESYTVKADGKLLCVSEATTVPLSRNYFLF

O=C(NN1C(=O)SCC1c1ccc(Cl)cc1Cl)c1cc2c(F)cc([N+](=O)[O-])cc2o1 (stereo not shown) [Compound 8, N-(4-(2,4-dichlorophenyl)-2-oxothiazolidin-3-yl)-4-fluoro-6-nitrobenzofuran-2-carboxamide]
IC50: 2900 ± 10 nM
